Measurements from patent US11226337B2, “Chemoproteomic profiling of protein electrophilic and oxidative post-translational modifications” (Zenagem, LLC, priority 2017, dated 2022).
Entries after “also recorded” stand apart in the source; their conditions may differ.

Molecular target: T1, AMD1 pyruvoyl cofactor (Homo sapiens, UniProt P17707)
T1 construct: made in house; host or cells: E. coli (vector pQE30)
Experiment: in vitro labelling of purified reconstituted AMD1, LC-MS/MS
Assay type: binding
Details: 50 μM AMD1, 3 mM probe 1, overnight
Procedure: Full-length AMD1 having an additional 12 amino acids (MRGSH6GS) (SEQ ID NO: 46) appended to the N-terminal methionine residue was expressed from the bacterial vector pQE30. The appendage contains a His6 element (SEQ ID NO: 69) to permit purification of the protein by metal ion affinity chromatography on Ni-NTA agarose (Qiagen). E. coli cell cultures were grown at 37° C. in rich LB broth (35 g/L tryptone, 20 g/L yeast extract, 5 g/L NaCl, and 0.05 g/L kanamycin (pH 7.0)) to an optical density at 600 nm of 0.6-0.8. The flasks were cooled rapidly by incubation on ice for 30 minutes prior to addition of IPTG (1 mM). Following induction, cultures were grown at 15-18° C. for an additional 16-20 hours and cells were harvested by centrifugation (8,000 g, 30 min, 4° C.). The cell paste was flash-frozen in liquid N2 and stored at −80° C. A typical yield was 8-10 g of wet cell paste per liter of culture. […]
A 100 μL solution of 50 μM purified reconstituted AMD1 in PBS was incubated overnight at ambient temperature in the presence or absence of 3 mM probe 1 (pH 7). […] Peptides were eluted from the column using a 180 minute gradient from 0% to 50% Buffer B (Buffer A: 5% acetonitrile, 95% H2O, 0.1% formic acid; Buffer B: 80% acetonitrile, 20% H2O, 0.1% formic acid) and analyzed on an LTQ-Orbitrap Finnigan mass spectrometer (Thermo Scientific). […]

T1 sequence (P17707 68-334 limits assumed): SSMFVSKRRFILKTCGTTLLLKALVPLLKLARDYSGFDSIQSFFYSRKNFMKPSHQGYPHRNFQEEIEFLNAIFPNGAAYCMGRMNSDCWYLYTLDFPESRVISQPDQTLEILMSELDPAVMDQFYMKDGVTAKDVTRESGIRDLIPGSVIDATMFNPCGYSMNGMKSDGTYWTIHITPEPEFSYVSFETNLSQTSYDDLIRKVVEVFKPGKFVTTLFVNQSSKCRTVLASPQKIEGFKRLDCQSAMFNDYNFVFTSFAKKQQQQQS
T1 sequence (P17707 1-67 partner limits assumed): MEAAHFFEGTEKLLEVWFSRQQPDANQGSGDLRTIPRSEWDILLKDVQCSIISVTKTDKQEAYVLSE

C#CCNN.Cl [probe 1, prop-2-yn-1-ylhydrazine hydrochloride]
site specificity of the reaction: reacted specifically with the N-terminal pyruvoyl group
extent of reaction with the pyruvoyl group (ambient temperature, hydrochloride): the reaction with probe 1 was complete; also recorded: proceeded to near-completion
